test system: HT29 cells; test: Inhibition of cell necrosis (CCK8 method), induced programmed necrosis of HT29 cells; format: cell-based; settings: Homo sapiens, HT-29; rescue from necrosis induced by TNF-α 20 ng/mL, AT-406 1 μM, Z-VAD-FMK 20 μM; 16-20 hours; CCK-8, OD 450 nm
Experimental: Assay Example 2. Assay Method for Compounds Inhibiting Cell Necrosis (CCK8 Method)
In this assay example 2, under the condition of inducing programmed cell necrosis, different concentrations of the test compounds were added to test the IC50 of the rescue effect of the test compounds on the programmed necrosis.
• Compounds: Dissolved in DMSO to make a 10 mM solution; • TNF-α: The initial concentration was 100 μg/mL; • Z-VAD-FMK: Dissolved in DMSO to make a 10 mM solution; • AT-406: Dissolved in DMSO to make a 10 mM solution. I. Experimental Steps • 1) Compound dilution: All test compounds were dissolved in DMSO to prepare a 10 mM stock solution, and the first concentration gradient dilution of the test compounds was completed in DMSO. The gradient dilution factor was 4 times and 9 concentration gradients were made; A 40-fold overall dilution of all compounds was completed in the cell culture medium, and the resulting compound was 10× compound, which will be added to the wells of the 96-well plate containing cells, so that the final cell culture medium was 1× the designed final concentration. The general drug design is 9 concentration gradients, of which the highest final concentration is 25000 nM, the lowest concentration after 4-fold dilution of 9 concentrations is 0.38 nM, and the final concentration of DMSO in all wells is 0.25%. The compound dilution process is shown in FIG. 3. • 2) HT 29 cells in good growth condition were selected, trypsinized, the cells was collected by centrifugation, resuspended in McCOY's 5A complete medium (containing 10% FBS) and counted, and the number of cells and survival rate were recorded. • 3) Cells were inoculated to the 60 wells in the middle of the 96-well culture plate at a density of 12000 cells/80 μL/well, surrounding wells were filled with sterile water, and incubated overnight. • 4) 10 μL of the 10× compound diluted with the medium was added to the assay wells, 10 μL of McCOY's 5A complete medium containing 2.5% DMSO was added to the inducer-free wells and the control wells, mixed and shaked, and incubated for 30 minutes. • 5) Then 10 μL of inducer mixture (TNF-α, AT-406, Z-VAD-FMK with the final concentration of 20 ng/mL, 1 μM, 20 μM) was added into the assay wells and control wells. 10 μL McCOY's 5A complete medium was added to wells without inducer. Cells were cultured in an incubator with 5% CO2, at 37° C. • 6) After culturing for 16-20 hours, 10 μL of CCK-8 reagent was added to each well, and incubated for about 2 hours; • 7) The OD value was read at 450 nm on the multi-function plate reader. • 8) Data processing: Inhibition rate of necrosis (%)=100*(X−B)/(A−B) • A: The OD values of the wells without inducer (containing cells, CCK-8, without compound and inducer); • […]: OD values of assay wells (containing cells, CCK-8, compound, inducer); • B: OD values of control wells (containing cells, CCK-8, inducer, without compound). Then the value were imported into Graphpad Prism5 software for curve fitting and the IC50 values were calculated.

Compound | IC50 [nM]
CC(C)(O)CCCCOc1ccc(C(F)(F)F)c(-c2ccnc(NC(=O)c3nnc(Cc4ccccc4F)[nH]3)c2)c1 [Example 269, 5-(2-fluorobenzyl)-N-(4-(5-((5-hydroxyl-5-methylhexyl)oxy)-2-(trifluoromethyl)phenyl)pyridin-2-yl)-4H-1,2,4-triazole-3-carboxamide] | ≤ 100
O=C(Nc1cc(-c2cc(OCCCCO)ccc2Cl)ccn1)c1nnc(Cc2ccccc2F)[nH]1 [Example 372, 5-(2-fluorobenzyl)-N-(4-(2-chloro-5-(4-hydroxybutoxy)phenyl)pyridin-2-yl)-4H-1,2,4-triazole-3-carboxamide] | ≤ 100
Cc1cc(Cl)ccc1-c1ccnc(NC(=O)c2nnc(Cc3ccccc3)[nH]2)c1 [Example 11, 5-benzyl-N-(4-(4-chloro-2-methylphenyl)pyridin-2-yl)-4H-1,2,4-triazole-3-carboxamide] | 1000 to 10000
CC(C)(O)CCCOc1ccc(Cl)c(-c2cc(NC(=O)c3nnc(Cc4ccccc4F)[nH]3)ncn2)c1 [Example 463, 5-(2-fluorobenzyl)-N-(6-(2-chloro-5-((4-hydroxy-4-methylpentyl)oxy)phenyl)pyrimidin-4-yl)-4H-1,2,4-triazole-3-carboxamide] | ≤ 100
CC(C)(O)CCCOc1ccc(Cl)c(-c2cc(NC(=O)c3nnc(Cc4ccccc4F)[nH]3)ncc2F)c1 [Example 409] | ≤ 100
COc1ccc(C)cc1-c1ccnc(NC(=O)c2nnc(Cc3ccccc3)[nH]2)c1 [Example 16, 5-benzyl-N-(4-(2-methoxy-5-methylphenyl)pyridin-2-yl)-4H-1,2,4-triazole-3-carboxamide] | 1000 to 10000
CC(C)(O)CCCOc1ccc(C(F)(F)F)c(-c2ccnc(NC(=O)c3nnc(CC4CCCC4)[nH]3)c2)c1 [Example 258, 5-(cyclopentylmethyl)-N-(4-(5-((4-hydroxy-4-methylpentyl)oxy)-2-(trifluoromethyl)phenyl)pyridin-2-yl)-4H-1,2,4-triazole-3-carboxamide] | ≤ 100
COCCOc1ccc(C)c(-c2ccnc(NC(=O)c3nnc(Cc4ccccc4)s3)c2)c1 [Example 130, 5-benzyl-N-(4-(5-(2-methoxyethoxy)-2-methylphenyl)pyridin-2-yl)-1,3,4-thiodiazol-2-carboxamide] | > 10000
Cc1ccc(OCCCC(C)(C)O)cc1-c1cc(NC(=O)c2nnc(CC3CCCCC3)[nH]2)ncn1 [Example 440, 5-(cyclohexylmethyl)-N-(6-(5-((4-hydroxy-4-methylpentyl)oxy)-2-methylphenyl)pyrimidin-4-yl)-4H-1,2,4-triazole-3-carboxamide] | ≤ 100
COc1ncc(C)cc1-c1ccnc(NC(=O)c2nnc(Cc3ccccc3)[nH]2)c1 [Example 50, 5-benzyl-N-(2-methoxy-5-methyl-[3,4′-bipyridin]-2′-yl)-4H-1,2,4-triazole-3-carboxamide] | 1000 to 10000
Cc1ccc(OCCCC(C)(C)O)cc1-c1cc(NC(=O)c2nnc(Cc3cc(F)cc(F)c3)[nH]2)ncn1 [Example 437, 5-(3,5-difluorobenzyl)-N-(6-(5-((4-hydroxy-4-methylpentyl)oxy)-2-methylphenyl)pyrimidin-4-yl)-4H-1,2,4-triazole-3-carboxamide] | 100 to 1000
Cc1ccc(OCCCCC(C)(C)O)cc1-c1cc(NC(=O)c2nnc(Cc3ccccc3F)[nH]2)ncc1F [Example 494, N-(5-fluoro-4-(5-((5-hydroxyl-5-methylhexyl)oxy)-2-methylphenyl)pyridin-2-yl)-5-(2-fluorobenzyl)-4H-1,2,4-triazole-3-carboxamide] | ≤ 100
Cc1ccc(OCCC2CCOCC2)cc1-c1cc(NC(=O)c2nnc(Cc3ccccc3F)[nH]2)ncc1C [Example 253, 5-(2-fluorobenzyl)-N-(5-methyl-4-(2-methyl-5-(2-(tetrahydro-2H-pyran-4-yl)ethoxy)phenyl)pyridin-2-yl)-4H-1,2,4-triazole-3-carboxamide] | 100 to 1000
Cc1ccc(OCCCC(C)(C)O)cc1-c1cc(NC(=O)c2nnc(CC3CCCCC3)[nH]2)ncc1F [Example 493, 5-(cyclohexylmethyl)-N-(5-fluoro-4-(5-((4-hydroxy-4-methylpentyl)oxy)-2-methylphenyl)pyridin-2-yl)-4H-1,2,4-triazole-3-carboxamide] | ≤ 100
CC(C)(O)CCCCOc1ccc(Cl)c(-c2cc(NC(=O)c3nnc(CC4CCCCC4)[nH]3)ncc2F)c1 [Example 502, N-(4-(2-chloro-5-((5-hydroxyl-5-methylhexyl)oxy)phenyl)-5-fluoropyridin-2-yl)-5-(cyclohexylmethyl)-4H-1,2,4-triazole-3-carboxamide] | ≤ 100
Cc1ccc(OCCCC(C)(C)O)cc1-c1ccnc(NC(=O)c2nnc(Cc3cccc(F)c3F)[nH]2)c1 [Example 202, 5-(2,3-difluorobenzyl)-N-(4-(5-((4-hydroxy-4-methylpentyl)oxy)-2-methylphenyl)pyridin-2-yl)-4H-1,2,4-triazole-3-carboxamide] | ≤ 100
CCOCCOc1ccc(Cl)c(-c2ccnc(NC(=O)c3nnc(CC4CCCC4)[nH]3)c2)c1 [Example 385, N-(4-(2-chloro-5-(2-ethoxyethoxy)phenyl)pyridin-2-yl)-5-(cyclopentylmethyl)-4H-1,2,4-triazole-3-carboxamide] | ≤ 100
Cc1ccc(NC(=O)CCC(C)(C)O)cc1-c1ccnc(NC(=O)c2nnc(CC3CCCC3)[nH]2)c1 [Example 490, 5-(cyclopentylmethyl)-N-(4-(5-(4-hydroxy-4-methylvaleramido)-2-methylphenyl)pyridin-2-yl)-4H-1,2,4-triazole-3-carboxamide] | ≤ 100
COCCOc1cccc(-c2ccnc(NC(=O)c3nnc(Cc4ccccc4)[nH]3)c2)c1C [Example 96, 5-benzyl-N-(4-(3-(2-methoxyethoxy)-2-methylphenyl)pyridin-2-yl)-4H-1,2,4-triazole-3-carboxamide] | 100 to 1000
COCCCOc1ccc(C)c(-c2ccnc(NC(=O)c3nnc(CC4CCCC4)[nH]3)c2)c1 [Example 144, 5-(cyclopentylmethyl)-N-(4-(5-(3-methoxypropoxy)-2-methylphenyl)pyridin-2-yl)-4H-1,2,4-triazole-3-carboxamide] | ≤ 100
Cc1ccc(OCCC2CCOCC2)cc1-c1cc(NC(=O)c2nnc(Cc3ccccc3)[nH]2)ncn1 [Example 445, 5-benzyl-N-(6-(2-methyl-5-(2-(tetrahydro-2H-pyran-4-yl)ethoxy)phenyl)pyrimidin-4-yl)-4H-1,2,4-triazole-3-carboxamide] | ≤ 100
CCC(O)(CC)CCCOc1ccc(C(F)(F)F)c(-c2ccnc(NC(=O)c3nnc(CC4CCCC4)[nH]3)c2)c1 [Example 262, 5-(cyclopentylmethyl)-N-(4-(5-((4-ethyl-4-hydroxyhexyl)oxy)-2-(trifluoromethyl)phenyl)pyridin-2-yl)-4H-1,2,4-triazole-3-carboxamide] | ≤ 100
CC(=O)c1ccc(-c2ccnc(NC(=O)c3nnc(Cc4ccccc4)[nH]3)c2)c(C)c1 [Example 162, N-(4-(4-acetyl-2-methylphenyl)pyridin-2-yl)-5-benzyl-4H-1,2,4-triazole-3-carboxamide] | 100 to 1000
CCC(O)(CC)CCCOc1ccc(C)c(-c2cc(NC(=O)c3nnc(Cc4ccccc4F)[nH]3)ncc2Cl)c1 [Example 244, N-(5-chloro-4-(5-((4-ethyl-4-hydroxyhexyl)oxy)-2-methylphenyl)pyridin-2-yl)-5-(2-fluorobenzyl)-4H-1,2,4-triazole-3-carboxamide] | ≤ 100
CCOc1ccc(C)c(-c2ccnc(NC(=O)c3nnc(Cc4ccccc4)[nH]3)c2)c1 [Example 108, 5-benzyl-N-(4-(5-ethoxy-2-methylphenyl)pyridin-2-yl)-4H-1,2,4-triazole-3-carboxamide] | 1000 to 10000
Cc1ccc(OCCN2CCCCC2)cc1-c1ccnc(NC(=O)c2nnc(Cc3ccc(F)cc3F)[nH]2)c1 [Example 230, 5-(2,4-difluorobenzyl)-N-(4-(2-methyl-5-(2-(piperidin-1-yl)ethoxy)phenyl)pyridin-2-yl)-4H-1,2,4-triazole-3-carboxamide] | 100 to 1000

Source: US12435060B2, “Acylamino bridged heterocyclic compound, and composition and application thereof” (BEIJING SCITECH-MQ PHARMACEUTICALS LIMITED, priority 2019, dated 2025)
